Experimental data taken from patent US8003360B2, “Debaryomyces castellii phytase” (Adisseo France S.A.S., priority 2005, dated 2011).
“Also recorded” adds a separate entry of the source. Where two headings read alike, the source gives them in different places.

Assays:
[1] = system: D. castellii phytase; test: Substrate specificity, phosphate release kinetics (Table 6A); format: biochemical, Debaryomyces castellii; conditions: 250 mM sodium acetate buffer, 1 mM CaCl2, pH 4, 37° C.
Procedure: The reaction is triggered by the addition of the enzymatic extract (1 volume). The reaction is stopped by acidification of the medium with 20% trichloroacetic acid (1 volume of reaction medium+1 volume of acid). The amount of phosphate released is determined after various incubation times.

[2] = system: D. castellii phytase; test: Influence of effectors on phytase activity; format: biochemical, Debaryomyces castellii; conditions: for inhibition of phytase activity: concentrations see Table 3
[3] = target: T1, Debaryomyces castellii CBS 2923 phytase, native (wild type), SEQ ID No. 2 (Schwanniomyces capriottii, UniProt A2TBB4); test: Influence of effectors on the phytase activity; format: biochemical; conditions: for effect on the phytase activity (in words): Table 3
Procedure: (§1) The amount of phosphate released is measured by colorimetery. The visualizing solution, prepared extemporaneously, contains iron sulphate (380 mM, 1 volume) and ammonium heptamolybdate (12 mM, 4 volumes). The absorbance at 700 nm is measured after 30 minutes of visualization at ambient temperature (1 volume of reaction medium+1 volume of visualizing solution), using a UV/visible spectrophotometer (Beckman DU 530).

[4] = system: Debaryomyces castellii CBS2923 phytase; test: Influence of the environment (additives, calcium, buffer molarity) on thermostability of the phytase; format: physicochemical
Procedure: At the end of treatment, the extract is cooled in water at +4° C. […] Three types of elements are tested: • sugars or sugar alcohol: sucrose, lactose, trehalose, arabinose, glycerol, • the absence of calcium, • the molarity of the buffer. […] At the end of treatment, the extract is cooled in water to +4° C. […] Materials and Methods).

[5] = system: Schwanniomyces occidentalis phytase; conditions: Segueilha et al., 1992; cited from earlier work
[6] = system: D. castellii phytase; test: Hydrolysis of various inositol phosphates (Table 6B); format: biochemical, Debaryomyces castellii; conditions: hydrolysis 30 minutes at 37° C., pH 4
[7] = system: D. castellii phytase; test: Kinetic constants of the native phytase on substrates; format: biochemical, Debaryomyces castellii; conditions: +37° C., pH 4 with sodium phytate, pH 5.5 with p-NPP
Procedure: (§2) The effect of pH on the phytase activity is determined using the following buffer solutions: 200 mM glycine-HCl, pH 2-3.5; 200 mM sodium acetate-acetic acid, pH 3.5-7; and 200 mM tris-HCl, pH 7-9. The reactions are carried out at +37° C. using the phytate as substrate. The optimum temperature is determined by varying the temperature from +30° C. to +80° C. […] After the heat treatment, the mixture is cooled in ice and the phytase activity is determined using the phytate as substrate.
(§3) The kinetic constants are determined on 2 substrates.

[8] = target: recombinant Debaryomyces castellii CBS 2923 phytase (recPhyt, expressed in Pichia pastoris), SEQ ID No. 2 (Schwanniomyces capriottii, UniProt A2TBB4)
[9] = target: T1, Debaryomyces castellii CBS 2923 phytase, native (wild type), SEQ ID No. 2; test: Kinetic constants (specificity study) of the native phytase; format: biochemical; conditions: native enzyme
Procedure: as §2, §1, §3

[10] = system: recombinant phytase; test: Kinetic constants of the recombinant phytase on substrates; format: biochemical, Debaryomyces castellii; conditions: Lineweaver-Burk representation
[11] = substrate: O=P(O)(O)O[C@H]1[C@H](OP(=O)(O)O)[C@@H](OP(=O)(O)O)[C@H](OP(=O)(O)O)[C@@H](OP(=O)(O)O)[C@H]1OP(=O)(O)O; test: purified protein, by the assay type
[12] = additive 10% in 250 mM acetate buffer pH 4, 1 mM calcium
[13] = effector 5 mM, phytate control = 100
[14] = CaCl2 0 mM (absence of calcium), 250 mM acetate buffer pH 4
[15] = other: native enzyme, 37° C., pH 4 for sodium phytate, pH 5.5 for p-NPP

O=P(O)(O)OCC(O)CO (stereo in doubt) [L-α-glycerophosphate]
% activity ([1]; substrate 4 mM): 78%

OCCS [2-mercaptoethanol]
effect on phytase activity ([2]; inhibitors tested, see Table 3): absence of effect
% activity ([3]; effector 3 mM, phytate control 9 mM = 100): 107%

Nc1ncnc2c1ncn2[C@@H]1O[C@H](COP(=O)(O)OP(=O)(O)O)[C@@H](O)[C@H]1O [Adenosine 5′-diphosphate]
% activity ([1]; substrate 4 mM): 120%

Nc1ncnc2c1ncn2[C@@H]1O[C@H](COP(=O)(O)O)[C@@H](O)[C@H]1O [Adenosine 5′-monophosphate]
% activity ([1]; substrate 4 mM): 50%

Nc1ncnc2c1ncn2[C@@H]1O[C@H](COP(=O)(O)OP(=O)(O)OP(=O)(O)O)[C@@H](O)[C@H]1O [Adenosine 5′-triphosphate]
% activity ([1]; substrate 4 mM): 133%

O=C[C@@H](O)[C@H](O)[C@H](O)CO [Arabinose, arabinose]
activity after 1 h at 20° C. [4, 12]: 90
activity after 1 h at 66.5° C. [4, 12]: 36

[Ca+2].[Cl-].[Cl-] [CaCl2]
% activity [2, 13]: 90%
activity after 1 h at 20° C. [4, 14]: 100
activity after 1 h at 66.5° C. [4, 14]: 1

[Cl-].[Cl-].[Co+2] [CoCl2]
% activity [2]: 42.3%

[Cl][Cr][Cl] [CrCl2]
% activity [2, 13]: 107.6%

[Cl][Cu][Cl] [CuCl2]
% activity [2, 13]: 66.6%
effect on phytase activity [5]: sensitive

O=C(O)C(O)COP(=O)(O)O (stereo not drawn) [D(−)3-phosphoglyceric acid]
% activity ([1]; substrate 4 mM): 95%

O=C(O)CN(CCN(CC(=O)O)CC(=O)O)CC(=O)O [EDTA]
% activity [2]: 104.5%

[Cl][Fe]([Cl])[Cl] [FeCl3]
% activity [2, 13]: 92%

O=C(CO)[C@@H](O)[C@H](O)[C@H](O)COP(=O)(O)O [Fructose-6-phosphate]
% activity ([1]; substrate 4 mM): 35%

O=C[C@H](O)[C@@H](O)[C@H](O)[C@H](O)COP(=O)(O)O [Glucose-6-phosphate]
% activity ([1]; substrate 4 mM): 82%

OCC(O)CO [Glycerol, glycerol]
activity after 1 h at 20° C. [4, 12]: 96
activity after 1 h at 66.5° C. [4, 12]: 56

[Cl][Hg][Cl] [HgCl2]
% activity [2, 13]: 96.2%

O=P(O)(O)OC1[C@H](O)[C@H](O)C(O)[C@H](O)[C@H]1O (stereo partly shown) [Ins(1)P1]
% activity ([6]; substrate 1 mM): 58%

O=P(O)(O)O[C@H]1[C@H](O)[C@@H](O)[C@H](OP(=O)(O)O)[C@@H](O)[C@H]1O [Ins(1,4)P2]
% activity ([6]; substrate 0.1 mM): 65%

O=P(O)(O)O[C@@H]1[C@H](O)[C@H](O)[C@@H](OP(=O)(O)O)[C@H](OP(=O)(O)O)[C@H]1O [Ins(1,4,5)P3]
% activity ([6]; substrate 0.1 mM): 56%

O=P(O)(O)OC1[C@@H](O)[C@H](O)C(O)[C@H](O)[C@H]1O (stereo partly shown) [Ins(2)P1]
% activity ([6]; substrate 1 mM): 84%

OC[C@H]1O[C@@H](O[C@H]2[C@H](O)[C@@H](O)C(O)O[C@@H]2CO)[C@H](O)[C@@H](O)[C@H]1O (stereo partly shown) [Lactose, lactose]
activity after 1 h at 20° C. [4, 12]: 95
activity after 1 h at 66.5° C. [4, 12]: 47

[Cl-].[Cl-].[Mg+2] [MgCl2]
% activity [2, 13]: 68.7%

[Cl][Mn][Cl] [MnCl2]
inhibition of phytase activity [2]: 72%
% activity [2, 13]: 28.8%

O=C1CCC(=O)N1Br [N-bromosuccinimide]
% activity ([2]; effector 0.1 and 1 mM, phytate control = 100): 1%
effect on phytase activity ([2]; inhibitors tested, see Table 3): completely inhibits
effect on the phytase activity (in words) [3]: completely inhibits the phytase activity

C=C(OP(=O)(O)O)C(=O)O [Phospho(enol)pyruvate]
% activity ([1]; substrate 4 mM): 130%

O=P(O)(O)O[C@H]1[C@H](OP(=O)(O)O)[C@@H](OP(=O)(O)O)[C@H](OP(=O)(O)O)[C@@H](OP(=O)(O)O)[C@H]1OP(=O)(O)O [Phytic acid, myo-inositol hexakisphosphate]
% activity ([1]; substrate 9 mM (control)): 100%
% activity ([6]; substrate 9 mM (control)): 91%

O=P(O)(O)O[C@H]1[C@H](OP(=O)(O)O)[C@@H](OP(=O)(O)O)[C@H](OP(=O)(O)O)[C@@H](OP(=O)(O)O)[C@H]1OP(=O)(O)O [Sodium phytate, sodium phytate]
Vm [7]: 35.8 µmol/min/mg
affinity (in words) ([8]; phytate compared with p-NPP): greater affinity

OC[C@H]1O[C@@](CO)(O[C@H]2O[C@H](CO)[C@@H](O)[C@H](O)[C@H]2O)[C@@H](O)[C@@H]1O [Sucrose, sucrose]
activity after 1 h at 20° C. [4, 12]: 97
activity after 1 h at 66.5° C. [4, 12]: 57

OC[C@H]1O[C@H](O[C@H]2O[C@H](CO)[C@@H](O)[C@H](O)[C@H]2O)[C@H](O)[C@@H](O)[C@@H]1O [Trehalose, trehalose]
activity after 1 h at 20° C. [4, 12]: 94
activity after 1 h at 66.5° C. [4, 12]: 56

[Cl-].[Cl-].[Zn+2] [ZnCl2]
% activity [2, 13]: 57%
effect on phytase activity [5]: sensitive

O=P(O)(O)O[C@H]1[C@H](OP(=O)(O)O)[C@@H](OP(=O)(O)O)[C@H](OP(=O)(O)O)[C@@H](OP(=O)(O)O)[C@H]1OP(=O)(O)O [calcium phytate]
affinity of the phytase relative to p-nitrophenyl phosphate (pNPP) ([9]; calcium phytate versus pNPP): 4 times

II [iodine]
% activity [2]: 25.6%
inhibition of phytase activity [2]: 75%

O=C(O)CI [iodoacetic acid]
% activity [2]: 100%
effect on phytase activity [2]: does not cause any inhibition; also recorded: absence of effect
effect on the phytase activity (in words) [3]: does not cause any inhibition of the activity

O=[N+]([O-])c1ccc(OP(=O)(O)O)cc1 [pNPP, p-nitrophenyl phosphate]
Km [7]: 2270 µM
Vm [7]: 30.9 µmol/min/mg
% activity ([1]; substrate 4 mM): 135%
Km ([9]; 37° C., pH 4 for sodium phytate, pH 5.5 for p-NPP): 2270 µM
Km [10]: 2050 µM
Vm [10]: 274.6 U/mg
Km ([8]; recombinant enzyme, Lineweaver-Burk, 37° C., pH 4 for sodium phytate, pH 5.5 for p-NPP): 2050 µM

N[C@@H](Cc1c[nH]c2ccccc12)C(=O)O [tryptophan]
effect on the phytase activity (in words) [3]: re-establishes the activity

B1: Debaryomyces castellii CBS 2923 phytase, native (wild type), SEQ ID No. 2 (Schwanniomyces capriottii) (protein)
chain: VSVSKLINNGLLLVGQGAYQDLASPQQASVEQYNIIRFLGGAAPYIQNKGFGISTDIPDQCTLEQVQLFSRHGERYPSTGSGKKYKAVYEKLMSYNGTFKGELAFLNDDYEYFVPDSVYLEKETSPKNSDSIYAGTTDAMKHGIAFRTKYGELFDTNDTLPVFTSNSGRVYQTSQYFARGFMGDDFSNDTVKTNIISEDADMGANSLTPRDGCFNYNENANTAIVDEYTTEYLTKALNRFKASNPGLNITEDDVSNLFGYCAYELNVKGASPMCDIFTNEEFIQYSYSVDLDDYYSNSAGNNMTRVIGSTLLNASLELLNHDKNENKIWLSFTHDTDIEIFHSAIGILIPDEDLPVDYTPFPSPYSHVGITPQGARTIIEKYACGNESYVRYVINDAVIPIKKCSSGPGFSCNLNDYNDYVAERVAGTNYVEQCGNNNASAVTFYWDYETTNYTASLINS
Km [11, 15]: 532 µM
Vmax [11, 15]: 35.8 µmol/min/mg

B2: recombinant Debaryomyces castellii CBS 2923 phytase (recPhyt, expressed in Pichia pastoris), SEQ ID No. 2 (Schwanniomyces capriottii) (protein)
chain: MVSVSKLINNGLLLVGQGAYQDLASPQQASVEQYNIIRFLGGAAPYIQNKGFGISTDIPDQCTLEQVQLFSRHGERYPSTGSGKKYKAVYEKLMSYNGTFKGELAFLNDDYEYFVPDSVYLEKETSPKNSDSIYAGTTDAMKHGIAFRTKYGELFDTNDTLPVFTSNSGRVYQTSQYFARGFMGDDFSNDTVKTNIISEDADMGANSLTPRDGCFNYNENANTAIVDEYTTEYLTKALNRFKASNPGLNITEDDVSNLFGYCAYELNVKGASPMCDIFTNEEFIQYSYSVDLDDYYSNSAGNNMTRVIGSTLLNASLELLNHDKNENKIWLSFTHDTDIEIFHSAIGILIPDEDLPVDYTPFPSPYSHVGITPQGARTIIEKYACGNESYVRYVINDAVIPIKKCSSGPGFSCNLNDYNDYVAERVAGTNYVEQCGNNNASAVTFYWDYETTNYTASLINS
Km ([11]; 37.0 °C): 240 µM
Vmax ([11]; 37.0 °C): 137.8 U/mg
